Values of other authors as cited in patent publication US10993442B2, “Ultra-high loading glyphosate concentrate” (STEPAN COMPANY, priority 2008, dated 2021).
Where a name gives a salt, the structure may show the parent alone.

Conditions: for Solubility in water, glyphosate acid equivalent: as acid equivalent; for Solubility in water: as salt

SMILES	Solubility in water, glyphosate acid equivalent	Solubility in water	Water solubility (free acid form)
CC(C)N.O=C(O)CNCP(=O)(O)O [isopropylamine salt of glyphosate]	about 47 % by weight glyphosate acid equivalent (a.e.)	about 63 % by weight	–
O=C(O)CNCP(=O)(O)O [glyphosate, N-phosphonomethylglycine]	–	–	low
O=C(O)CNCP(=O)(O)O [glyphosate potassium salt]	about 50 % by weight glyphosate acid equivalent (a.e.)	about 61 % by weight	–
